Patent US5608093A, “Corticosteroid 17-alkyl carbonate 21-[0]-carboxylic and carbonic esters, and pharmaceuticals containing these compounds” (Hoechst Aktiengesellschaft, priority 1993, dated 1997)

What was measured:
[1] = tested on: gluconeogenesis in rats (liver); assay: Systemic effect: gluconeogenesis in adrenalectomized rats; conditions: for Glycogen + glucose mg/100 g of liver / Liver glycogen: 6 h; for Effect on new formation of glucose and glycogen (in words): p 0.05, t test
Method: A sensitive method for detecting systemic effects on carbohydrate metabolism is to examine the gluconeogenic effect of corticosteroids in the adrenalectomized rat. Three days prior to the experiment, groups of in each case 6 rats are adrenalectomized under pentobarbital anesthesia and then provided with 0.9% sodium chloride solution as drinking fluid. Two days later, i.e. 24 hours before initiating the experiment, the feed is removed in order to reduce the glycogen stores in the liver.
On the day of the experiment, the preparations under examination are administered subcutaneously, dissolved in sesame oil (2 ml/kg). Six hours later, the animals are decapitated, and in each case the liver is removed and 1 g thereof is taken up in 5 ml of 0.6 molar perchloric acid. After homogenization, the free glucose is measured in the supernatant from the centrifugation, while the centrifugation sediment (centrifugate; glycogen) is cleaved enzymically with amyloglucosidase, after which the glucose content is also measured in this fraction (Hexokinase method, Boehringer Mannheim).

carrageenan paw edema = assay: Systemic antiinflammatory effect following subcutaneous administration: carrageenan paw edema in rats; format: in vivo, rat (male Sprague-Dawley); conditions: for Increase in volume (ml) (x ± s), paw: 6 h after carrageenan
Method: 2 a) Examining for systemic antiinflammatory effect in the "antiinflammatory effect following subcutaneous administration: carrageenan paw edema in rats" test.
The carrageenan paw edema test in rats in accordance with the method described by Winter et al. Proc. Soc. Exp. Biol. (New York) Volume 111, p. 544 (1962) was chosen as the test for the acute systemic antiinflammatory effect. Male Sprague-Dawley rats of about 120 g in weight were given the substances to be tested s.c. (0.2 ml/100 g) dissolved in sesame oil. 30 min later, 0.1 ml of a 0.5% carrageenan solution was injected into the left hind paw. 6 h later, the degree of swelling was measured volumetrically. Controls were only given sesame oil.
The paw volumes are given in ml, x±s. In this case too, the antiinflammatory effect is characterized by giving the dose in mg/kg required for approximately 50% inhibition.

[2] = tested on: croton oil (TPA) ear edema, rat ear; assay: Local antiinflammatory effect in rat croton oil ear edema following epicutaneous application; format: in vivo, rat (male Wistar); conditions: for Inhibition in % / x ± s (mg), ear disk weight difference (right treated minus left untreated): epicutaneous, 4 h; for Local antiinflammatory effect (in words): general statement; for Relative local antiinflammatory potency (Result): rat ear edema, in words
Method: (§1) 1. Local antiinflammatory effect in rat croton oil ear edema following epicutaneous application
(§2) We used the rat ear method of Tonelli et al.: male Wistar rats from our own colony and weighing about 50 g were treated epicutaneously on the right ear with the irritant or with irritant containing test substance. The left ear remained untreated. TPA (12-O-tetradecanoylphorbol 13-acetate, SIGMA P 8139) dissolved in acetone, 0.4 mg/ml, (of which 20 μl each on the inside and outside) was used for eliciting the inflammation. The corticoids under examination were dissolved in this solution in the given final concentrations. Controls only received the TPA/solvent mixture. The animals were sacrificed using CO2 4 h after the epicutaneous treatment. Disks measuring 8 mm in diameter were punched out of the right (treated) and the left (untreated) ears and weighed immediately. This difference, as the parameter for the degree of inflammation, was set at 100 in the controls (mg, x±s). The antiinflammatory effect is characterized by giving the dose in mg/ml which is required for approximately 50% inhibition: […]

[3] = Split (ratio) of local to systemic antiinflammatory effect / therapeutic advantage; format: in vivo, rat
Method: as §1, §2
The carrageenan paw edema test in rats in accordance with the method described by Winter et al. Proc. Soc. […] 6 h later, the degree of swelling was measured volumetrically. […]

[4] = 3 mg/kg s.c., * significant, t test
[5] = 3.0 mg/kg s.c., * p<0.05, Dunnett's test

| SMILES | Glycogen + glucose mg/100 g of liver ([1]; 0.3 mg/kg s.c.) | Liver glycogen ([1]; 0.3 mg/kg s.c.) | Glycogen + glucose mg/100 g of liver [1, 4] | Liver glycogen [1, 4] | Effect on new formation of glucose and glycogen (in words) ([1]; 3 mg/kg s.c.) | Increase in volume (ml) (x ± s), paw (carrageenan paw edema; 0.3 mg/kg s.c.) | Increase in volume (ml) (x ± s), paw (carrageenan paw edema; [5]) | Inhibition in % ([2]; 0.03 mg/ml) | x ± s (mg), ear disk weight difference (right treated minus left untreated) ([2]; 0.03 mg/ml) | Inhibition in % ([2]; 0.1 mg/ml) | x ± s (mg), ear disk weight difference (right treated minus left untreated) ([2]; 0.1 mg/ml) | Inhibition in % ([2]; 0.3 mg/ml) | x ± s (mg), ear disk weight difference (right treated minus left untreated) ([2]; 0.3 mg/ml) | Local antiinflammatory effect (in words) [2] | Relative local antiinflammatory potency (Result) [2] | Split / ratio of local to systemic antiinflammatory effect (in words) [3] | Systemic effect in paw edema compared with the test compounds (in words) (carrageenan paw edema; significant only after 3 mg/kg, s.c.) | Inhibition in % ([2]; 1 mg/ml) | x ± s (mg), ear disk weight difference (right treated minus left untreated) ([2]; 1 mg/ml) |
| --- | --- | --- | --- | --- | --- | --- | --- | --- | --- | --- | --- | --- | --- | --- | --- | --- | --- | --- | --- |
| CCOC(=O)O[C@]1(C(=O)COC(=O)Cc2ccccc2)CC[C@H]2[C@@H]3CCC4=CC(=O)C=C[C@]4(C)[C@H]3[C@@H](O)C[C@@]21C [Compound I, Prednisolone 17-ethyl carbonate 21-phenylacetate] | 11.3 ± 2.0 mg/100 g of liver | 0.5 ± 0.7 | 25.9 ± 13 mg/100 g of liver | 2.4 ± 2.4 | do not have any significant effect at 3 mg/kg | 0.34 ± 0.12 mL | 0.19 ± 0.9 mL | 33% | 10 ± 3.0 mg | 67% | 5 ± 1.1 mg | 80% | 3 ± 2.3 mg | strong local antiinflammatory effect | approximately three times more powerful than prednicarbate | strikingly favorable split to weak systemic activity | – | – | – |
| CCOC(=O)O[C@]1(C(=O)COC(=O)Cc2ccccc2)[C@@H](C)C[C@H]2[C@@H]3CCC4=CC(=O)C=C[C@]4(C)[C@@]3(F)[C@@H](O)C[C@@]21C [Compound II, Betamethasone 17-ethyl carbonate 21-phenyl acetate] | 23.6 ± 6.8 mg/100 g of liver | 2.8 ± 1.4 | 37.9 ± 30 mg/100 g of liver | 7.4 ± 10 | do not have any significant effect at 3 mg/kg | 0.33 ± 0.12 mL | 0.19 ± 0.9 mL | – | – | 66% | 5.1 ± 3.3 mg | 70% | 4.5 ± 3.1 mg | strong local antiinflammatory effect | corresponding effect to that of compound I | strikingly favorable split to weak systemic activity | – | – | – |
| CCOC(=O)O[C@]1(C(=O)COC(=O)CC)CC[C@H]2[C@@H]3CCC4=CC(=O)C=C[C@]4(C)[C@H]3[C@@H](O)C[C@@]21C [Prednicarbate, prednisolone 17-ethyl carbonate 21-propionate, reference compound] | – | – | – | – | – | – | – | – | – | – | – | – | – | – | – | – | corresponds to the behavior of prednicarbate | 80% | 3 ± 1.7 mg |
